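Interpolation was linear, between the two tested concentrations surrounding the appropriate level; five concentrations were tested over 48 hours in 96-well plates. GI50 = concentration required for 50% inhibition of growth.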 The source made the active and inactive calls. Cut-off read from the data, not from the text of the source: active = GI50 up to about 1.1 µM and inactive = higher.
What was measured:
Experiment in all cases: growth of human tumour cells (NCI), 48 h
KM-20L2 = system: KM-20L2
LOX IMVI = system: LOX IMVI
NCI-H23 = system: NCI-H23
COLO 205 = system: COLO 205
A549 = system: A549
DMS-273 = system: DMS-273
M19-MEL = system: M19-MEL
HCC 2998 = system: HCC 2998
HT-29 = system: HT-29
SNB-19 = system: SNB-19
SF-295 = system: SF-295
Malme-3M = system: Malme-3M
UACC-62 = system: UACC-62
CAKI-1 = system: CAKI-1
SK-MEL-2 = system: SK-MEL-2
SW-620 = system: SW-620
SF-268 = system: SF-268
SF-539 = system: SF-539
DLD-1 = system: DLD-1
DMS-114 = system: DMS-114
U-251 = system: U-251
OVCAR-8 = system: OVCAR-8
K562 = system: K562
ACHN = system: ACHN
HL-60 = system: HL-60
SK-OV-3 = system: SK-OV-3
SK-MEL-28 = system: SK-MEL-28
KM12 = system: KM12
UO-31 = system: UO-31
A498 = system: A498
NCI-H522 = system: NCI-H522
RPMI-8226 = system: RPMI-8226
TK-10 = system: TK-10
RXF 393 = system: RXF 393
M14 = system: M14
HOP-62 = system: HOP-62
SN12C = system: SN12C
LXFL 529 = system: LXFL 529
HCT-116 = system: HCT-116
786-0 = system: 786-0
NCI-H226 = system: NCI-H226
MOLT-4 = system: MOLT-4
SNB-75 = system: SNB-75
UACC-257 = system: UACC-257
IGROV-1 = system: IGROV-1
HCT-15 = system: HCT-15
OVCAR-4 = system: OVCAR-4
OVCAR-3 = system: OVCAR-3
NCI-H460 = system: NCI-H460
SK-MEL-5 = system: SK-MEL-5
HOP-18 = system: HOP-18
SNB-78 = system: SNB-78
OVCAR-5 = system: OVCAR-5
CCRF-CEM = system: CCRF-CEM
SR = system: SR
EKVX = system: EKVX

Structure (SMILES): Cc1ccc(C)c2c1C1CCCCC3(OCCCO3)C21O (stereo not drawn)
- GI50 (KM-20L2): > 100 µM (inactive)
- GI50 (LOX IMVI): > 100 µM (inactive)
- GI50 (NCI-H23): > 100 µM (inactive)
- GI50 (COLO 205): > 100 µM (inactive)
- GI50 (A549): > 100 µM (inactive)
- GI50 (DMS-273): > 100 µM (inactive)
- GI50 (M19-MEL): > 100 µM (inactive)
- GI50 (HCC 2998): > 100 µM (inactive)
- GI50 (HT-29): > 100 µM (inactive)
- GI50 (SNB-19): > 100 µM (inactive)
- GI50 (SF-295): > 100 µM (inactive)
- GI50 (Malme-3M): > 100 µM (inactive)
- GI50 (UACC-62): > 100 µM (inactive)
- GI50 (CAKI-1): > 100 µM (inactive)
- GI50 (SK-MEL-2): > 100 µM (inactive)
- GI50 (SW-620): > 100 µM (inactive)
- GI50 (SF-268): > 100 µM (inactive)
- GI50 (SF-539): > 100 µM (inactive)
- GI50 (DLD-1): > 100 µM (inactive)
- GI50 (DMS-114): 80 µM (inactive)
- GI50 (U-251): > 100 µM (inactive)
- GI50 (OVCAR-8): > 100 µM (inactive)
- GI50 (K562): > 100 µM (inactive)
- GI50 (ACHN): > 100 µM (inactive)
- GI50 (HL-60): > 100 µM (inactive)
- GI50 (SK-OV-3): > 100 µM (inactive)
- GI50 (SK-MEL-28): > 100 µM (inactive)
- GI50 (KM12): > 100 µM (inactive)
- GI50 (UO-31): > 100 µM (inactive)
- GI50 (A498): > 100 µM (inactive)
- GI50 (NCI-H522): > 100 µM (inactive)
- GI50 (RPMI-8226): > 100 µM (inactive)
- GI50 (TK-10): > 100 µM (inactive)
- GI50 (RXF 393): > 100 µM (inactive)
- GI50 (M14): > 100 µM (inactive)
- GI50 (HOP-62): > 100 µM (inactive)
- GI50 (SN12C): > 100 µM (inactive)
- GI50 (LXFL 529): > 100 µM (inactive)
- GI50 (HCT-116): > 100 µM (inactive)
- GI50 (786-0): > 100 µM (inactive)
- GI50 (NCI-H226): > 100 µM (inactive)
- GI50 (MOLT-4): > 100 µM (inactive)
- GI50 (SNB-75): 31.7 µM (inactive)
- GI50 (UACC-257): > 100 µM (inactive)
- GI50 (IGROV-1): > 100 µM (inactive)
- GI50 (HCT-15): > 100 µM
- GI50 (OVCAR-4): > 100 µM (inactive)
- GI50 (OVCAR-3): 51.4 µM (inactive)
- GI50 (NCI-H460): > 100 µM (inactive)
- GI50 (SK-MEL-5): > 100 µM (inactive)
- GI50 (HOP-18): 17.1 µM (inactive)
- GI50 (SNB-78): > 100 µM (inactive)
- GI50 (OVCAR-5): > 100 µM (inactive)
- GI50 (CCRF-CEM): > 100 µM (inactive)

Structure (SMILES): CC1(C)OC(COP2OCCO2)[C@H](COP2OCCO2)O1 (stereo partly drawn)
- GI50 (LOX IMVI): > 100 µM (inactive)
- GI50 (NCI-H23): > 100 µM (inactive)
- GI50 (A549): > 100 µM (inactive)
- GI50 (DMS-273): > 100 µM (inactive)
- GI50 (M19-MEL): > 100 µM (inactive)
- GI50 (HT-29): > 100 µM (inactive)
- GI50 (SF-295): > 100 µM (inactive)
- GI50 (Malme-3M): > 100 µM (inactive)
- GI50 (UACC-62): > 100 µM (inactive)
- GI50 (SK-MEL-2): > 100 µM (inactive)
- GI50 (SW-620): > 100 µM (inactive)
- GI50 (SF-268): > 100 µM (inactive)
- GI50 (SF-539): > 100 µM (inactive)
- GI50 (DMS-114): > 100 µM (inactive)
- GI50 (OVCAR-8): > 100 µM (inactive)
- GI50 (K562): > 100 µM (inactive)
- GI50 (ACHN): > 100 µM (inactive)
- GI50 (HL-60): > 100 µM (inactive)
- GI50 (SK-MEL-28): > 100 µM (inactive)
- GI50 (KM12): > 100 µM (inactive)
- GI50 (A498): > 100 µM (inactive)
- GI50 (TK-10): > 100 µM (inactive)
- GI50 (RXF 393): > 100 µM (inactive)
- GI50 (M14): > 100 µM (inactive)
- GI50 (SN12C): > 100 µM (inactive)
- GI50 (LXFL 529): > 100 µM (inactive)
- GI50 (HCT-116): > 100 µM (inactive)
- GI50 (NCI-H226): > 100 µM (inactive)
- GI50 (MOLT-4): > 100 µM (inactive)
- GI50 (SNB-75): > 100 µM (inactive)
- GI50 (UACC-257): > 100 µM (inactive)
- GI50 (IGROV-1): 31 µM (inactive)
- GI50 (HCT-15): > 100 µM
- GI50 (OVCAR-4): > 100 µM (inactive)
- GI50 (OVCAR-3): > 100 µM (inactive)
- GI50 (NCI-H460): > 100 µM (inactive)
- GI50 (SK-MEL-5): > 100 µM (inactive)
- GI50 (HOP-18): > 100 µM (inactive)
- GI50 (SNB-78): > 100 µM (inactive)
- GI50 (CCRF-CEM): > 100 µM (inactive)

Structure (SMILES): O=C(COc1ccc(Br)cc1Br)N1N=C(c2ccc([N+](=O)[O-])o2)CC1(O)c1ccccc1 (stereo not drawn)
- GI50 (SR): 2.12 µM (inactive)
- GI50 (KM-20L2): 17.9 µM (inactive)
- GI50 (LOX IMVI): 5.47 µM (inactive)
- GI50 (NCI-H23): 12.4 µM (inactive)
- GI50 (COLO 205): 2.7 µM (inactive)
- GI50 (A549): 8.65 µM (inactive)
- GI50 (DMS-273): 12.8 µM (inactive)
- GI50 (HCC 2998): 10.6 µM (inactive)
- GI50 (HT-29): 13.4 µM (inactive)
- GI50 (SNB-19): 19.3 µM (inactive)
- GI50 (SF-295): 18.7 µM (inactive)
- GI50 (Malme-3M): 10.7 µM (inactive)
- GI50 (UACC-62): 4.95 µM (inactive)
- GI50 (CAKI-1): 14.5 µM (inactive)
- GI50 (SK-MEL-2): 12.5 µM (inactive)
- GI50 (SW-620): 13.1 µM (inactive)
- GI50 (SF-268): 12.3 µM (inactive)
- GI50 (SF-539): > 10 µM (inactive)
- GI50 (DLD-1): 10.7 µM (inactive)
- GI50 (DMS-114): 6.11 µM (inactive)
- GI50 (U-251): 8.73 µM (inactive)
- GI50 (OVCAR-8): 9.89 µM (inactive)
- GI50 (K562): 4.7 µM (inactive)
- GI50 (ACHN): 15.3 µM (inactive)
- GI50 (HL-60): 3.12 µM (inactive)
- GI50 (SK-OV-3): 24.1 µM (inactive)
- GI50 (SK-MEL-28): 12.6 µM (inactive)
- GI50 (KM12): 17.4 µM (inactive)
- GI50 (UO-31): 5.36 µM (inactive)
- GI50 (A498): 10.2 µM (inactive)
- GI50 (NCI-H522): 5.48 µM (inactive)
- GI50 (RPMI-8226): 2.11 µM (inactive)
- GI50 (RXF 393): 2.53 µM (inactive)
- GI50 (M14): 10.1 µM (inactive)
- GI50 (HOP-62): 13.2 µM (inactive)
- GI50 (SN12C): 12.2 µM (inactive)
- GI50 (LXFL 529): 8.73 µM (inactive)
- GI50 (HCT-116): 11.9 µM (inactive)
- GI50 (786-0): 15.6 µM (inactive)
- GI50 (NCI-H226): 18.2 µM (inactive)
- GI50 (MOLT-4): 2.64 µM (inactive)
- GI50 (SNB-75): 14.1 µM (inactive)
- GI50 (UACC-257): 23.1 µM (inactive)
- GI50 (IGROV-1): 19.5 µM (inactive)
- GI50 (HCT-15): 6.19 µM
- GI50 (EKVX): 2.79 µM (inactive)
- GI50 (OVCAR-4): 17 µM (inactive)
- GI50 (OVCAR-3): 3.93 µM (inactive)
- GI50 (NCI-H460): 6.24 µM (inactive)
- GI50 (SK-MEL-5): 5.45 µM (inactive)
- GI50 (HOP-18): 8.75 µM (inactive)
- GI50 (SNB-78): 27.2 µM (inactive)
- GI50 (OVCAR-5): 29.3 µM (inactive)
- GI50 (CCRF-CEM): 3.13 µM (inactive)
